Results as given in patent US20260374773A1, “MULTI-CYCLIC IRAK AND FLT3 INHIBITING COMPOUNDS AND USES THEREOF” (CHILDREN'S HOSPITAL MEDICAL CENTER, priority 2022, published 2026).

Key:
[1] = biological target: T1, IRAK4 (Homo sapiens, UniProt Q9NWZ3); test: RBC HotSpot kinase inhibition assay, IRAK4; format: biochemical; settings: Table 17; isolated kinase, 33P-ATP, 2 h
T1 sequence (Q9NWZ3 1-460): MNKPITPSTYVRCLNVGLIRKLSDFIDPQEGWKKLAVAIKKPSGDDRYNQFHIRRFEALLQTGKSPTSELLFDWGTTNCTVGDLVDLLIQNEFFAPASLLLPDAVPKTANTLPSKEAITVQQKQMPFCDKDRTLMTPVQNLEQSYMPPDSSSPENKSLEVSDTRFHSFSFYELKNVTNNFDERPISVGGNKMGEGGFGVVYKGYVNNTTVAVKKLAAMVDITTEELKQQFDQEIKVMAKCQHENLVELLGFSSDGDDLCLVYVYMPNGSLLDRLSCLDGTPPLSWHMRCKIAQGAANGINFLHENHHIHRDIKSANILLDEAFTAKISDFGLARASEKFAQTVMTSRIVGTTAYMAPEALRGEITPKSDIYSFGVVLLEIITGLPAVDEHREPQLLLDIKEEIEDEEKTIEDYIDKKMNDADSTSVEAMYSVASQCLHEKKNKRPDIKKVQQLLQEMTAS
Text: (§1) This assay uses the isolated kinase enzyme. This assay is very useful for determining competition of the inhibitor for ATP and/or substrates and for measuring the kinetics of enzyme inhibition. […] Unlike kinase binding assays that measure competition for ATP, the HotSpot Kinase Assay is a functional assay that measures catalytic activity; as such it measures relative functional potency regardless of the mechanism of enzyme inhibition. This assay uses the form of the various enzymes that are easiest to express, which may not necessarily be the form of the enzyme that exist in the cell. (Sometimes the carboxy terminus has been truncated to aid in expression, or, if it is a receptor kinase, the enzyme itself is isolated from the other parts of the receptor that are involved in regulating kinase activity.)
(§2) The reagent used was as follows: Base Reaction buffer; 20 mM Hepes (pH 7.5), 10 mM MgCl2, 1 mM EGTA, 0.01% Brij35, 0.02 mg/ml BSA, 0.1 mM Na3VO4, 2 mM DTT, 1% DMSO. Required cofactors were added individually to each kinase reaction.
(§3) The reaction procedure was as follows: • 1) Substrates were prepared in freshly prepared Reaction Buffer. • 2) Any required cofactors were delivered to the substrate solution above. • 3) Kinase was delivered into the substrate solution and gently mixed. • 4) Compounds were delivered in 100% DMSO into the kinase reaction mixture by Acoustic technology (Echo550; nanoliter range), followed by incubation for 20 min at room temp. • 5) ^33P-ATP was delivered into the reaction mixture to initiate the reaction. • 6) The mixture was incubated for 2 hours at room temperature. • 7) Kinase activity was detected by P81 filter-binding method.
as §1, with “Although not wishing to be limited by theory, it is believed that sometimes” for “(Sometimes”, “activity.” for “activity.)”
(§4) The reagent used was as follows: Base Reaction buffer; 20 mM Hepes (pH 7.5), 10 mM MgCl2, 1 mM EGTA, 0.01% Brij35, 0.02 mg/ml BSA, 0.1 mM Na3 VO4, 2 mM DTT, 1% DMSO.
(§5) Required cofactors were added individually to each kinase reaction.
as §3, with “33P-ATP” for “^33P-ATP”

[2] = system: NF-κB; test: NF-κB SEAP reporter assay in THP-1-Blue NF-κB cells, Pam3CSK4 stimulated; format: cell-based; settings: Table 21; THP-1-Blue cells, 1 ng/ml Pam3CSK4, 24 h; read-out: NF-κB Pam3SCK4 IC50
Protocol: (§6) THP-1-Blue NF-κB cells (InvivoGen) carrying a stable integrated NF-κB-inducible secreted embryonic alkaline phosphatase (SEAP) reporter construct were plated at a concentration of 1×10^5 cells per well. The cells were stimulated with Pam3CSK4 (1 ng/ml) or hIL1B (1 ng/ml). After 10-20 minutes, the cells were then treated with vehicle (DMSO) or serial dilutions of the test compounds (10 doses tested for each test compound, with a […] starting at 1 μM or 3 μM) with a final volume of 200 μL for 24 hours at 37 °C. After 24 hours, the cells were centrifuged and 20 μL supernatant was incubated with 180 μL QUANTI-Blue reagent at 37 °C for 30-60 minutes. The levels of NF-κB-induced was measured in a microplate reader at 620 nm.
as §6, with “1 mM” for “1 μM”, “3 mM)” for “3 μM)”, “200 mL” for “200 μL”, “20 mL” for “20 μL”, “180 mL” for “180 μL”, “NF-κB-induced gene expression were” for “NF-κB-induced was”

[3] = system: NF-κB; test: NF-κB SEAP reporter assay in THP-1-Blue NF-κB cells, hIL1B stimulated; format: cell-based; settings: Table 21; THP-1-Blue cells, 1 ng/ml hIL1B, 24 h; read-out: NF-κB IL1B IC50
Protocol: as §6
as §6, with “1 mM” for “1 μM”, “3 mM)” for “3 μM)”, “200 mL” for “200 μL”, “20 mL” for “20 μL”, “180 mL” for “180 μL”, “NF-κB-induced gene expression were” for “NF-κB-induced was”

[4] = biological target: IRAK1 (Homo sapiens, UniProt P51617); test: RBC HotSpot kinase inhibition assay, IRAK1; format: biochemical; settings: Table 17; isolated kinase, 33P-ATP, 2 h
Text: as §1, §2, §3
as §1, with “Although not wishing to be limited by theory, it is believed that sometimes” for “(Sometimes”, “activity.” for “activity.)”
as §4, §5
as §3, with “33P-ATP” for “^33P-ATP”

[5] = biological target: T2, FLT3 (Homo sapiens, UniProt P36888); test: RBC HotSpot kinase inhibition assay, FLT3; format: biochemical; settings: Table 17; isolated kinase, 33P-ATP, 2 h
T2 sequence (P36888 27-993): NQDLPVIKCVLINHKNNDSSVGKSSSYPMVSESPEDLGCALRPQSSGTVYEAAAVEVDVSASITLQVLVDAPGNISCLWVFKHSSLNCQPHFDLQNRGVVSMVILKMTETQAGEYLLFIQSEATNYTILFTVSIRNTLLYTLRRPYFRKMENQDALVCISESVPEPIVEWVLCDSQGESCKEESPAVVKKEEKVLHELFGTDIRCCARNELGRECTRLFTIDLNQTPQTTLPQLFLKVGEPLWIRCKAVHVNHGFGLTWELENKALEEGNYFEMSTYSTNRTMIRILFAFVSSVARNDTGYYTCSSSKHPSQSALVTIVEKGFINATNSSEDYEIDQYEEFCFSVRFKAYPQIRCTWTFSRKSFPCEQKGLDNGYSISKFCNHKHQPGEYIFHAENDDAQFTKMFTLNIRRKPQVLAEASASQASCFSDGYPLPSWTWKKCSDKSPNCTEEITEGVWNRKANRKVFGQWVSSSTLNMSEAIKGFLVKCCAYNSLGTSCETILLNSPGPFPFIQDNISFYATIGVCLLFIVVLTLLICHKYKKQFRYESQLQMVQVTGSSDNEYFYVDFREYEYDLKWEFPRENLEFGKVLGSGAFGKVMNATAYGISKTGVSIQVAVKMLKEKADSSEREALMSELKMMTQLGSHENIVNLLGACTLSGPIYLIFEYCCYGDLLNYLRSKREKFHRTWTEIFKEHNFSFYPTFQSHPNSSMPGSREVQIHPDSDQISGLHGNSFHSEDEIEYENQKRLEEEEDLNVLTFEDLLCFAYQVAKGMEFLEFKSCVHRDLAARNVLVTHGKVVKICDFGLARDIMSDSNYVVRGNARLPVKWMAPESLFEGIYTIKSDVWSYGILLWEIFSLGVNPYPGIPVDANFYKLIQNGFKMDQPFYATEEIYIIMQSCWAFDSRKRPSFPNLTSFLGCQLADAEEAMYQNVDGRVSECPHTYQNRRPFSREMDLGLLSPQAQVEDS
Text: as §1, §2, §3
as §1, with “Although not wishing to be limited by theory, it is believed that sometimes” for “(Sometimes”, “activity.” for “activity.)”
as §4, §5
as §3, with “33P-ATP” for “^33P-ATP”

[6] = system: MOLM14 D835Y cells; test: MOLM14 D835Y cell viability (Cell Titer Glo); format: cell-based; settings: Homo sapiens, MOLM-14, Table 22, 48 h
Protocol: (§7) Both cell lines have activated FLT3 receptors, each of which carry additional resistance mutations in the kinase domain (D835Y and F691L, respectively).
(§8) MOLM14 D835Y and MOLM14 F691L cells were grown in RPMI-1640 media supplemented with 20% fetal bovine serum (FBS). For viability/cytotoxicity assessments, cells were seeded into 1536-well white polystyrene tissue culture-treated Greiner plates using a Multidrop Combi dispenser (ThermoFisher), in final volume 5 μL of growth media per well, at a density of 1000 cells per well. After cell addition, 23 nL of test compound were transferred into individual wells (22 doses tested for each test compound, with a 1:2 dilution series starting at 10 μM) via a 1536 pin-tool. Bortezomib (final concentration 2.3 μM) was used as a positive control for cell cytotoxicity. Plates were incubated for 48 hours at standard incubator conditions covered by a stainless steel gasketed lid to prevent evaporation. 48 hours post compound addition, 3 μL of Cell Titer Glo (Promega) were added to each well and plates were incubated at room temperature for 15 minutes with the stainless-steel lid in place. Luminescence readings were taken using a Viewlux imager (PerkinElmer) with a 2 second exposure time per plate.
This cell line has activated FLT3 receptors, which carries an additional resistance mutation in the kinase domain at D835Y.
as §8, with “D835Y” for “D835Y and MOLM14 F691L”, “mL” for “μL”, “mM)” for “μM)”

[7] = system: MOLM14 F691L cells; test: MOLM14 F691L cell viability (Cell Titer Glo); format: cell-based; settings: Homo sapiens, MOLM-14, Table 22, 48 h
Protocol: as §7, §8

Sequence of IRAK1 (P51617 whole entry): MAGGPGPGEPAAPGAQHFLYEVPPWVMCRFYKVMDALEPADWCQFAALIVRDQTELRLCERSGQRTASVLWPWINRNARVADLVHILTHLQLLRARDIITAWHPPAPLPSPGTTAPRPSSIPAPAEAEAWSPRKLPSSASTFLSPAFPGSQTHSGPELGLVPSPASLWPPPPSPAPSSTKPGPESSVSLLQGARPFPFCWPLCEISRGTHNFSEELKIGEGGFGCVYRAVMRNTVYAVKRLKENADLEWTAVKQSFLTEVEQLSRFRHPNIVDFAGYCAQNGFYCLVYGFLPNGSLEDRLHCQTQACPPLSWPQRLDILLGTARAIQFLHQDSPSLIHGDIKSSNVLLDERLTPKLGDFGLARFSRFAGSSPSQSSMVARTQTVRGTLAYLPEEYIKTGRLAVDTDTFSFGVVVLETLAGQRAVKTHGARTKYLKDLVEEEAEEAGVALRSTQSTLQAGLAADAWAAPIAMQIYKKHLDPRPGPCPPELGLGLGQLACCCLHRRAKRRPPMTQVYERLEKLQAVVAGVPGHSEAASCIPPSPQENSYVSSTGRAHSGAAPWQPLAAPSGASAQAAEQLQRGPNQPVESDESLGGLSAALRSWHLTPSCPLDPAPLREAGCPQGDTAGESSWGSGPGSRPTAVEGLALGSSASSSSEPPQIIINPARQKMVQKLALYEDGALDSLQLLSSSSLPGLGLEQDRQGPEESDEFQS

Row | Compound | IC50 [1] [nM] | IC50 [2] [nM] | IC50 [3] [nM] | IC50 [4] [nM] | IC50 [5] [nM] | IC50 [6] [nM] | IC50 [7] [nM]
1 | COc1cn2ncc(-c3ccnc(N[C@@H]4CCCNC4)n3)c2nc1C1CC1 [Compound 9a, (R)-4-(5-cyclopropyl-6-methoxypyrazolo[1,5-a]pyrimidin-3-yl)-N-(piperidin-3-yl)pyrimidin-2-amine] | 4 | 173 | 128 | 44 | < 0.5 | – | –
2 | COc1cn2ncc(-c3ccnc(N[C@@H]4CCCNC4)n3)c2nc1C(C)(C)O [Compound 2a, (R)-2-(6-methoxy-3-(2-(piperidin-3-ylamino)pyrimidin-4-yl)pyrazolo[1,5-a]pyrimidin-5-yl)propan-2-ol] | 127 | – | – | 365 | 8 | 159 | 1790
